Laboratory results published in publication PMC8942850, “Boron clusters as broadband membrane carriers” (Nature, 2022).
Read-outs that look alike come from different tables or passages of the source. Residues, ends and D or L forms follow the SMILES beside them.

Key:
[1] = HPTS/DPX transport assay in zwitterionic EYPC vesicles; assay type: in vitro ADME; parameters: key to Et: Et = Ymax × (pEC50/ft); pEC50 = −log EC50; conditions: for Et transport efficiency: Et = Ymax × (pEC50/ft), ft = 19.8 so that WR7 equals 10.0, B12Br12^2− (40 μM) carrier, 5% error (SD) unless stated; for Ymax (%) maximal activity, transport of cargo / EC50: cargo concentration varied, B12Br12^2− (40 μM) as common carrier, EYPC⊃HPTS/DPX vesicles, pH 7.4, Hill analysis, 10% error (SD) unless stated, n.t. = no detectable transport; for Ymax (%) maximal activity, transport of cargo: 13 µM lipid, 10 mM Tris, 107 mM NaCl, HPTS fluorescence; for EC50: read-out: EC50 (μM) effective cargo concentration to reach 50% of Ymax
Procedure: The well-established HPTS/DPX assay, which uses 8-hydroxypyrene-1,3,6-trisulfonate (HPTS) and p-xylene-bis-pyridinium (DPX), was implemented to monitor peptide-transport activation (Fig. 2a). […] A surfactant (Triton X-100) was added at the end of the experiment (t = 600 s) to release all vesicle content and normalize the fluorescence intensity data.
Fig. 2 Carrier activity obtained from the HPTS/DPX assay. a, Schematic representation of the transport of otherwise impermeable analytes facilitated by superchaotropic cluster anions with encapsulated HPTS/DPX probe/quencher pair used for signalling. […] Concentrations of carrier and cargo, when fixed, were 40 and 20 µM, respectively, unless explicitly stated. Source data
A thin lipid film was prepared by evaporating a lipid solution with a stream of nitrogen and then dried in vacuo overnight.
Fluorescence intensities were normalized to fractional emission as I(t) = (It − I0)/(I∞ − I0), where I0 = It before cluster addition and I∞ = It after lysis.
In the activator measurements, in which different activators were tested with the same cargo, the activator efficiency (Ea) is determined from their ability to activate the transport of an impermeable cargo molecule and is characterized by Ymax, its maximal activity, and EC50, the effective activator concentration. A potent activator reaches high Ymax at low EC50. To reflect both factors, the activator efficiency is defined as Ea = Ymax × (pEC50/fa), where pEC50 is the negative logarithm of EC50.
In the transport measurements, in which different types of cargo were tested with the same activator, the transport efficiency (Et) reports on the sensitivity of the cargo for being transported and is described by Ymax, the maximal activity, and EC50, the effective cargo concentration. An easily accessible cargo reaches high Ymax at low EC50. The transport efficiency is defined as a composition of both parameters according to Et = Ymax × (pEC50/ft), where pEC50 is the negative logarithm of EC50.
Extended Data Fig. 3 Transport activity. a, Transport activity, Y, in EYPC⊃HPTS/DPX vesicles as a function of cluster concentration at constant cargo concentration (WR7, 20 µM). b, Transport activity, Y, for B12Br12^2− (40 µM) in EYPC⊃HPTS/DPX vesicles as a function of the concentration of different cargo types; red lines correspond to the resulting fit with the Hill equation. Source data

[2] = system: HeLa cells; assay: MTT viability with MMAF in absence or presence of B12Br12^2−; assay type: cell-based; conditions: for mean_viability: cluster 0, mean of three technical replicates; for IC50: MMAF
Procedure: The incubation mixtures were replaced with DMEM + 10% FBS + 0.5 mg ml^–1 MTT. For the viability assays in the presence of B12Br12^2− or R8, HeLa, GT1-7, ARPE-19 and A549 cells were seeded the day before in 96-well plates at 6,000 cells per well. Cells were incubated with B12Br12^2− or R8 dissolved in HKR buffer for 3 h and, thereafter, incubated for 24 h with complete medium before incubating with complete medium and 0.5 mg ml^−1 MTT. For viability studies in the presence of MMAF, HeLa cells were incubated with MMAF and B12Br12^2− diluted in DMEM (without serum or antibiotics) for 3 h. Cells were washed with 0.1 mg ml^−1 heparin and further incubated for 21 h in complete medium and 2 h in complete medium containing 0.5 mg ml^−1 MTT. For all types of assays, after 2 h of incubation, the medium was carefully removed, and formazan crystals dissolved by addition of DMSO. The absorbance at 570 nm was measured with a plate reader (Tecan Infinite F200Pro) and the data normalized to the value of untreated cells (100% viability). Data were analysed with R (v. 4.0.3)[54].
Solid points indicate mean ± s.d. of three technical replicates. […] Cross-bars indicate mean ± s.d. of three independent experiments (two with technical triplicates, one with technical duplicates); values obtained in each experiment are represented by different shapes. c, Viability […] Solid points indicate mean ± s.d. of three technical replicates. d, Corresponding IC50 values of MMAF. Cross-bars indicate mean ± s.d. of four independent experiments, each with technical triplicates; each experiment is represented by a different shape. e, E. coli Top10 viability in the presence of different concentrations of kanamycin A monosulphate (0–3.5 μg/mL) and B12Br12^2− (0–1,000 μM) in LB broth at 37 °C; data are mean ± s.d. of triplicate measurements. Source data

Compound | Et [1] | Et transport efficiency [1] | Ymax (%) maximal activity, transport of cargo [1] | EC50 [1] | Et ([1]; Fig.2 d, per analyte (cargo)) | other results
CC1(C)S[C@@H]2[C@H](NC(=O)[C@H](N)c3ccccc3)C(=O)N2[C@H]1C(=O)O [Ampicillin, ampicillin, reference compound] | 4.5 | 4.5 | 74% | 63 µM | – | –
CC(=O)OCC[N+](C)(C)C [Acetylcholine, acetylcholine] | – | 7.0 | 75% | 13.8 µM | 7 | –
Cc1ncc(C[n+]2csc(CCO)c2C)c(N)n1 [Vitamin B1] | – | 6.5 | 73% | 16.6 µM | 6.5 | –
phalloidin [reference compound] | 2.3 | 2.3 ± 0.3 | 90 ± 10% | 310 ± 70 µM | – | –
N[C@@H](Cc1c[nH]c2ccccc12)C(=O)O [Tryptophan] | 9.6 | 9.6 | 72% | 2.4 µM | – | –
N[C@@H](Cc1ccccc1)C(=O)O [Phenylalanine] | – | 0.5 ± 0.2 | 10 ± 4% | 109 µM | 0.5 | –
protamine | – | 10.0 | 76% | 2.4 µM | 10 | –
CC[C@H](C)[C@@H]([C@@H](CC(=O)N1CCC[C@H]1[C@H](OC)[C@@H](C)C(=O)N[C@@H](Cc1ccccc1)C(=O)O)OC)N(C)C(=O)[C@@H](NC(=O)[C@@H](NC)C(C)C)C(C)C [MMAF, monomethyl auristatin F] (HELM PEPTIDE1{[meV].V.[CC[C@H](C)[C@@H]([C@@H](CC(=O)[*:2])OC)N(C)[*:1]].[CO[C@H]([C@@H](C)C(=O)[*:2])[C@@H]1CCCN1[*:1]].F}$$$$V2.0) | – | – | – | – | – | mean_viability ([2]; MMAF 39.0625 nM): 103.936; percent_viability ([2]; MMAF 39.0625 nM, cluster 0, technical replicate 1): 103.03; percent_viability ([2]; MMAF 39.0625 nM, cluster 0, technical replicate 2): 107.013; percent_viability ([2]; MMAF 39.0625 nM, cluster 0, technical replicate 3): 101.765; mean_viability ([2]; MMAF 78.125 nM): 83.7598; percent_viability ([2]; MMAF 78.125 nM, cluster 0, technical replicate 1): 94.8234; IC50 ([2]; cluster 0, 3 h in DMEM + 21 h medium, experiment_2, read-out: IC50): 1210 nM; IC50 ([2]; cluster 0, 3 h in DMEM + 21 h medium, experiment_3, read-out: IC50): 1290 nM; IC50 ([2]; cluster 0, 3 h in DMEM + 21 h medium, experiment_4, read-out: IC50): 1410 nM; IC50 ([2]; cluster 0, 3 h in DMEM + 21 h medium, mean of four independent experiments, read-out: mean_IC50): 1210 nM; IC50 ([2]; cluster 5 µM as printed, 3 h in DMEM + 21 h medium, experiment_1, read-out: IC50): 512 nM; IC50 ([2]; cluster 5 µM as printed, 3 h in DMEM + 21 h medium, experiment_2, read-out: IC50): 709 nM; IC50 ([2]; cluster 5 µM as printed, 3 h in DMEM + 21 h medium, experiment_3, read-out: IC50): 905 nM; IC50 ([2]; cluster 5 µM as printed, 3 h in DMEM + 21 h medium, experiment_4, read-out: IC50): 870 nM; IC50 ([2]; cluster 10 µM as printed, 3 h in DMEM + 21 h medium, experiment_1, read-out: IC50): 467 nM; IC50 ([2]; cluster 10 µM as printed, 3 h in DMEM + 21 h medium, experiment_2, read-out: IC50): 568 nM; IC50 ([2]; cluster 10 µM as printed, 3 h in DMEM + 21 h medium, experiment_3, read-out: IC50): 660 nM; IC50 ([2]; cluster 10 µM as printed, 3 h in DMEM + 21 h medium, experiment_4, read-out: IC50): 583 nM; IC50 ([2]; cluster (B12Br12^2−) 5 mM as printed, 3 h in DMEM + 21 h medium, mean of four independent experiments, read-out: mean_IC50): 749 nM; IC50 ([2]; cluster (B12Br12^2−) 10 mM as printed, 3 h in DMEM + 21 h medium, mean of four independent experiments, read-out: mean_IC50): 569 nM
CC(=O)O[C@H]1C[C@@H]2CC[C@@H]3[C@H](CC[C@@]4(C)[C@H]3C[C@H]([N+]3(C)CCCCC3)[C@@H]4OC(C)=O)[C@@]2(C)C[C@@H]1N1CCCCC1 [Vecuronium, reference compound] | 3.5 | 3.5 | 64% | 50.6 µM | – | –
CNC(=C[N+](=O)[O-])NCCSCc1ccc(CN(C)C)o1 [Ranitidine, reference compound] | – | 3.9 | 70% | 75.9 µM | 3.9 | –
